Source: ChEMBL document CHEMBL5634141 (Eur J Med Chem, 2023)
Active and inactive are the calls of the source. The calls are words filed in the database; no cut-off is given here.

Tests used:
[1] = tested on: MIA PaCa-2; assay: Inhibition of colony formation in human MIA PaCa-2 cells expressing KRAS G12C mutant assessed as reduction in cell number at 30 nM incubated for 14 days in presence of SHP099 by crystal violet staining based analysis; type: functional; details: time 14.0 day
[2] = tested on: MIA PaCa-2; assay: Induction of apoptosis in human MIA PaCa-2 cells assessed as late apoptotic cells at 100 nM incubated for 48 hrs by Annexin V-FITC staining based flow cytometry analysis (reference value: 5.69 %); type: functional
[3] = tested on: NCI-H358; assay: Induction of apoptosis in human NCI-H358 cells assessed as necrotic cells at 100 nM incubated for 48 hrs by Annexin V-FITC staining based flow cytometry analysis (reference value: 1.62 %); type: functional
[4] = Volume of distribution at steady state in ICR mouse at 2 mg/kg, iv measured after 24 hrs by LC-MS/MS analysis; type: ADME, organism-based; details: in vivo
[5] = tested on: NCI-H358; assay: Synergistic antiproliferative activity against human NCI-H358 cells expressing KRAS G12C mutant assessed as combination index at 30 nM incubated for 72 hrs in presence of naporafenib by CCK-8 assay; type: functional
[6] = tested on: MIA PaCa-2; assay: Induction of apoptosis in human MIA PaCa-2 cells assessed as late apoptotic cells at 30 nM incubated for 48 hrs by Annexin V-FITC staining based flow cytometry analysis (reference value: 5.69 %); type: functional
[7] = tested on: von Hippel-Lindau disease tumor suppressor/GTPase KRas (Homo sapiens), P01116+P40337 [G12C]; assay: PROTAC activity at VHL/KRAS G12C mutant in human MIA PaCa-2 cells assessed as induction of protein degradation at 300 nM incubated for 6 hrs by Western blotting analysis relative to control; type: cell-based
[8] = tested on: von Hippel-Lindau disease tumor suppressor/GTPase KRas (Homo sapiens), P01116+P40337 [G12C]; assay: PROTAC activity at VHL/KRAS G12C mutant in human NCI-H358 cells assessed as inhibition of ERK phosphorylation incubated for 48 hrs by Western blotting analysis; type: cell-based; details: dose 10-10000 nM
[9] = tested on: NCI-H358; assay: Antiproliferative activity against human NCI-H358 cells expressing KRAS G12C mutant assessed as relative cell viability at 30 nM incubated for 72 hrs in presence of crizotinib by CCK-8 assay; type: functional; details: read-out: Activity
[10] = AUC (0 to infinity) in ICR mouse at 30 mg/kg, ip measured after 24 hrs by LC-MS/MS analysis; type: ADME, organism-based; details: in vivo
[11] = tested on: NCI-H358; assay: Induction of apoptosis in human NCI-H358 cells assessed as viable cells at 100 nM incubated for 48 hrs by Annexin V-FITC staining based flow cytometry analysis (reference value: 91.6 %); type: functional; details: read-out: Activity
[12] = tested on: von Hippel-Lindau disease tumor suppressor/GTPase KRas (Homo sapiens), P01116+P40337 [G12C]; assay: PROTAC activity at VHL/KRAS G12C mutant in human MIA PaCa-2 cells assessed as induction of protein degradation in presence of MG132 by Western blot analysis; type: cell-based
[13] = tested on: NCI-H358; assay: Antiproliferative activity against human NCI-H358 cells expressing KRAS G12C mutant assessed as relative cell viability at 30 nM incubated for 72 hrs in presence of infigratinib by CCK-8 assay; type: functional; details: read-out: Activity
[14] = tested on: MIA PaCa-2; assay: Induction of cell cycle arrest in human MIA PaCa-2 cells assessed as accumulation of cells at G2/M phase incubated for 48 hrs by propidium iodide staining based flow cytometry analysis; type: functional; details: dose 30-300 nM
[15] = tested on: von Hippel-Lindau disease tumor suppressor/GTPase KRas (Homo sapiens), P01116+P40337 [G12C]; assay: PROTAC activity at VHL/KRAS G12C mutant in human NCI-H358 cells assessed as induction of protein degradation at 100 nM incubated for 1 to 8 days by Western blotting analysis; type: cell-based; details: time 1-8 day
[16] = Cytotoxicity against HEK293T cells assessed as inhibition of cell growth incubated for 72 hrs by CCK-8 assay; type: toxicity, cell-based, HEK-293T; details: human
[17] = AUC (0 to infinity) in ICR mouse at 2 mg/kg, iv measured after 24 hrs by LC-MS/MS analysis; type: ADME, organism-based; details: in vivo
[18] = tested on: MIA PaCa-2; assay: Antitumor activity against human MIA PaCa-2 cells xenografted in BALB/c nude mouse assessed as reduction in percentage of CD31-positive cells at 10 to 30 mg/kg, ip administered for 16 days by immunohistochemical staining analysis; type: functional, organism-based; details: dose 10-30 mg/kg, time 16.0 day
[19] = Toxicity in BALB/c nude mouse xenografted with human MIA PaCa-2 cells assessed as change in body weight at 10 to 30 mg/kg, ip measured after 16 days; type: organism-based; details: in vivo, 384 h, dose 10-30 mg/kg, time 16 day
[20] = Half life in ICR mouse at 2 mg/kg, iv measured after 24 hrs by LC-MS/MS analysis; type: ADME, organism-based; details: in vivo
[21] = tested on: NCI-H358; assay: Inhibition of cell migration in human NCI-H358 cells incubated for 12 hrs by wound healing assay; type: functional, cell-based; details: dose 30-300 nM
[22] = tested on: von Hippel-Lindau disease tumor suppressor/GTPase KRas (Homo sapiens), P01116+P40337 [G12C]; assay: Protac activity at VHL/KRAS G12C mutant in human NCI-H358 cells assessed as induction of protein degradation at 100 nM preincubated with VH032 for 6 hrs followed by compound addition and measured after 48 hrs by Western blot analysis; type: cell-based
[23] = tested on: NCI-H358; assay: Induction of apoptosis in human NCI-H358 cells assessed as viable cells at 300 nM incubated for 48 hrs by Annexin V-FITC staining based flow cytometry analysis (reference value: 91.6 %); type: functional; details: read-out: Activity
[24] = tested on: NCI-H358; assay: Antiproliferative activity against human NCI-H358 cells expressing KRAS G12C mutant assessed as reduction of cell growth by measuring fold decrease in IC50 incubated for 72 hrs in presence of AZD4573 by CCK-8 assay; type: functional
[25] = tested on: Mus musculus; assay: In vivo PROTAC activity at VHL/KRAS G12C mutant in BALB/c nude mouse xenografted with human MIA PaCa-2 cells assessed as decrease in KRAS level at 10 to 30 mg/kg, ip administered for 16 days by Western blot analysis; type: functional, organism-based; details: dose 10-30 mg/kg, time 16.0 day
[26] = tested on: MIA PaCa-2; assay: Inhibition of cell migration in human MIA PaCa-2 cells incubated for 12 hrs by wound healing assay; type: functional, cell-based; details: dose 30-300 nM

C=CC(=O)N1CCN(c2nc(=O)n(-c3c(C)ccnc3C(C)C)c3nc(-c4c(F)cccc4OCC4CCN(CCCC(=O)N[C@H](C(=O)N5C[C@H](O)C[C@H]5C(=O)NCc5ccc(-c6scnc6C)cc5)C(C)(C)C)CC4)c(F)cc23)[C@@H](C)C1
inhibition [1]: Active
Activity [2]: 13.4%
Activity [3]: 1.12%
Vdss [4]: 2 L/kg
CI [5]: <1
Activity [6]: 7.18%
Activity [7]: 50%
Activity [8]: Dose-Dependent Effect
viability at 0.03 µM [9]: 0.43%
AUC(0-inf) [10]: 21100 ng·h/mL
viability at 0.1 µM [11]: 85.9%
Activity [12]: inactive
viability at 0.03 µM [13]: 0.38%
Activity [14]: Dose-Dependent Effect
Activity [15]: Active
IC50 at 72 h [16]: > 10 µM
AUC [17]: 404 ng·h/mL
Activity [18]: Active
Activity [19]: Non-Toxic
t1/2 [20]: 52.6 min
inhibition [21]: Dose-Dependent Effect
Activity [22]: inactive
viability at 0.3 µM [23]: 79.6%
fold change (FC) [24]: ~6
Activity [25]: Active
inhibition [26]: Dose-Dependent Effect
